Assay results as given in paper PMC6985722 (Antimicrobial Agents and Chemotherapy, 2020).

Columns and labels:
RSV-B isolates = system: RSV-B isolates; design: method as in ref 16 = [16]; 16. Cockerill GS , Bedernjak A , Brookes D , Dowey R , Harland R , Johnson SM , Mathews N , Paradowski M , Peeples M , Scott C , Steadman M , Taylor G , Thom M , Thomas E , Ward SE , Watterson D , You; details: n = 16 isolates; cited from earlier work
RSV-A Memphis-37b [1] = test: RSV human challenge study: viral load in nasal wash by quantitative culture; format: in vivo
Description: (§1) Subjects were screened outside the RSV season for eligibility, including measurement of RSV-A Memphis-37b-specific neutralizing antibody titer, ≤90 days before virus challenge. Eligible subjects were admitted to the quarantine unit on day −2 or day −1 and were inoculated intranasally on day 0 with the challenge virus, RSV-A Memphis-37b (4 log10 PFU/ml, given as one 0.4-ml installation per naris), as previously described ([26]). Nasal wash sampling every 12 h for confirmation of RSV infection by qualitative integrated cycler PCR ([12], [19]) began on the morning of day 2. Treatment began 12 h (±1 h) after collection of a nasal wash sample confirming RSV infection or on the evening of day 5 if RSV infection remained unconfirmed by the morning of day 5.
(§2) The study comprised two consecutive cohorts. […] Subjects were discharged on day 12 if nasopharyngeal swab samples tested negative by RSV rapid antigen assay (QuickVue RSV test; Quidel, San Diego, CA, USA). If such tests were positive or if a subject remained symptomatic, quarantine was extended to allow further observation. All subjects were evaluated on day 28 (±3 days).
(§3) Twice-daily collection of nasal wash samples allowed measurement of viral load via RT-qPCR and quantitative culture. RT-qPCR results were reported as PFUe/ml when the standard curve included in each assay contained a known infectious amount (PFU) of RSV, as described previously ([30]). Subjects reported the occurrence and severity of symptoms three times daily using a 10-item subject symptom diary card as previously reported ([12]) (see Supplemental Methods). Throughout the quarantine period, used tissues were collected and weighed daily, and total nasal mucus weight was recorded. PK assessments were based on venous blood samples. Safety assessments included measurement of vital signs, standard 12-lead ECG recordings, spirometry, a complete physical examination, and a respiratory-directed physical examination. AEs were monitored daily, coded according to the Medical Dictionary for Regulatory Activities Version 20.0, and graded according to the National Cancer Institute Common Terminology Criteria for Adverse Events Version 4.0 (see Supplemental Methods for further details).
(§4) The primary efficacy endpoint was AUC for RSV viral load, as measured by RT-qPCR, in nasal wash samples taken twice daily from just before the first dose until discharge (day 12). Viral load data were provided as log10 PFUe/ml; AUC (log10 PFUe/ml · h) was calculated using the trapezoid rule. Secondary efficacy endpoints related to viral load were AUC of RSV viral load, as assessed by quantitative culture, and the following measures, which were each assessed using both RT-qPCR and quantitative culture: peak viral load, time to peak viral load, and time to <1 log10 (for RT-qPCR) or undetectable (for quantitative culture) viral load (considered to occur at the first confirmed undetectable assessment after which no further virus was detected). Secondary efficacy endpoints related to clinical symptoms included AUC total symptom score; peak total symptom score; time to peak total symptom score; and the total weight of nasal mucus produced. Other secondary outcomes were safety, PK, and sequence detection of viral variants (see Supplemental Methods).
The primary efficacy analysis population (the ITT-I analysis set) comprised all randomized subjects who received challenge virus and at least one dose of study drug and met the criterion for laboratory-confirmed RSV infection (presence of detectable RSV). Sensitivity analyses were based on a subset of the ITT-I population who had first detectable RSV infection prior to study drug administration (the ITT-A analysis set) and a fixed time period of 6.5 days (comprising data for all subjects for 6.5 days of evaluation after the first dose, regardless of the staggered commencement of dosing). […]

[2] = 76 healthy adult males; single and multiple ascending dose; cited from earlier work
RSV-A clinical isolates = system: RSV-A clinical isolates; design: method as in ref 16 = [16]; 16. Cockerill GS , Bedernjak A , Brookes D , Dowey R , Harland R , Johnson SM , Mathews N , Paradowski M , Peeples M , Scott C , Steadman M , Taylor G , Thom M , Thomas E , Ward SE , Watterson D , You; details: n = 20 isolates; cited from earlier work
RSV-A Memphis-37b [3] = test: RSV human challenge study: disease severity (total symptom score, nasal mucus weight); format: in vivo
Description: as §1, §2, §3, §4
All statistical analyses were performed using two-sided testing. Student’s t tests were performed for normally distributed data with a constant variance; otherwise, the Satterthwaite t test or nonparametric tests were used. For the mucus weight analysis, the least-squares mean was calculated from a mixed model with repeated measures, adjusted for baseline mucus weight and treatment group as covariates and subject as a random effect.

[4] = preclinical evaluations, including juvenile toxicology studies; cited from earlier work
[5] = 200 mg, ITT-I, fixed time period of 6.5 days
[6] = 350 mg, ITT-A, fixed time period of 6.5 days
[7] = 350 mg, ITT-I, fixed time period of 6.5 days

SMILES: NCc1ccc2c(c1)nc(CN1C(=O)C3(CC3)c3ccc(F)cc31)n2CCCC(F)(F)F [RV521]
- IC50 (RSV-B isolates): 1 nM
- AUC of viral load (quantitative culture), mean (SE) (RSV-A Memphis-37b [1]; 200 mg, ITT-A): 53.89 (15.47) hours x log10 PFU/mL
- AUC of viral load (quantitative culture), reduction in mean vs placebo (RSV-A Memphis-37b [1]; 200 mg, ITT-A): 71.47%
- Peak viral load (quantitative culture), mean (SE) (RSV-A Memphis-37b [1]; 200 mg, ITT-A): 1.82 (0.41) log10 PFU/mL
- Time to peak viral load (quantitative culture), mean (SE) (RSV-A Memphis-37b [1]; 200 mg, ITT-A): 3.53 (0.84) days
- Time to undetectable viral load (quantitative culture), median (Q1, Q3) (RSV-A Memphis-37b [1]; 200 mg, ITT-A): 3 (2, 3.5) days
- AUC of viral load (quantitative culture), mean (SE) (RSV-A Memphis-37b [1]; 200 mg, ITT-I): 50.98 (14.89) log10 PFU/ml · h
- AUC of viral load (quantitative culture), reduction in mean vs that of placebo (RSV-A Memphis-37b [1]; 200 mg, ITT-I): 68.60%
- Peak viral load (quantitative culture), mean (SE) (RSV-A Memphis-37b [1]; 200 mg, ITT-I): 1.72 (0.40) log10 PFU/ml
- Time to peak viral load (quantitative culture), mean (SE) (RSV-A Memphis-37b [1]; 200 mg, ITT-I): 3.69 (0.81) days
- Time to undetectable viral load (quantitative culture), median (Q1, Q3) (RSV-A Memphis-37b [1]; 200 mg, ITT-I): 3.0 (2.0, 3.5) (n = 11) days
- Mean viral load at time of peak viral load in placebo arm (day 2; quantitative culture), mean (SE) (RSV-A Memphis-37b [1]; 200 mg, ITT-I): 0.88 (0.30) log10 PFU/ml
- AUC of viral load (quantitative culture), mean (SE) (RSV-A Memphis-37b [1]; [5]): 50.98 (14.89) log10 PFU/mL x hours
- AUC of viral load (quantitative culture), reduction in mean vs placebo (RSV-A Memphis-37b [1]; [5]): 68.60%
- AUC of viral load (quantitative culture), mean (SE) (RSV-A Memphis-37b [1]; 350 mg, ITT-A): 43.76 (14.73) hours x log10 PFU/mL
- AUC of viral load (quantitative culture), reduction in mean vs placebo (RSV-A Memphis-37b [1]; 350 mg, ITT-A): 76.83%
- Peak viral load (quantitative culture), mean (SE) (RSV-A Memphis-37b [1]; 350 mg, ITT-A): 1.81 (0.44) log10 PFU/mL
- Time to peak viral load (quantitative culture), mean (SE) (RSV-A Memphis-37b [1]; 350 mg, ITT-A): 3.47 (0.87) days
- Time to undetectable viral load (quantitative culture), median (Q1, Q3) (RSV-A Memphis-37b [1]; 350 mg, ITT-A): 2.5 (2, 2.5) days
- AUC of viral load (quantitative culture), mean (SE) (RSV-A Memphis-37b [1]; [6]): 43.76 (14.73) log10 PFU/mL x hours
- AUC of viral load (quantitative culture), reduction in mean vs placebo (RSV-A Memphis-37b [1]; [6]): 76.83%
- AUC of viral load (quantitative culture), mean (SE) (RSV-A Memphis-37b [1]; 350 mg, ITT-I): 38.29 (13.36) log10 PFU/ml · h
- AUC of viral load (quantitative culture), reduction in mean vs that of placebo (RSV-A Memphis-37b [1]; 350 mg, ITT-I): 76.42%
- Peak viral load (quantitative culture), mean (SE) (RSV-A Memphis-37b [1]; 350 mg, ITT-I): 1.58 (0.41) log10 PFU/ml
- Time to peak viral load (quantitative culture), mean (SE) (RSV-A Memphis-37b [1]; 350 mg, ITT-I): 3.85 (0.80) days
- Time to undetectable viral load (quantitative culture), median (Q1, Q3) (RSV-A Memphis-37b [1]; 350 mg, ITT-I): 2.5 (2.0, 2.5) (n = 9) days
- Mean viral load at time of peak viral load in placebo arm (day 2; quantitative culture), mean (SE) (RSV-A Memphis-37b [1]; 350 mg, ITT-I): 0.71 (0.32) log10 PFU/ml
- AUC of viral load (quantitative culture), mean (SE) (RSV-A Memphis-37b [1]; [7]): 38.29 (13.36) log10 PFU/mL x hours
- AUC of viral load (quantitative culture), reduction in mean vs placebo (RSV-A Memphis-37b [1]; [7]): 76.42%
- Tolerability [2]: well tolerated
- IC50 (RSV-A clinical isolates): 1.4 nM
- AUC of total symptom score, mean (SE) (RSV-A Memphis-37b [3]; 200 mg, ITT-A): 117.9 (35.26) score x hours
- AUC of total symptom score, reduction in mean vs placebo (RSV-A Memphis-37b [3]; 200 mg, ITT-A): 73.06%
- Daily nasal mucus weight, LS mean (RSV-A Memphis-37b [3]; 200 mg, ITT-A): 0.32 g
- Peak total symptom score, mean (SE) (RSV-A Memphis-37b [3]; 200 mg, ITT-A): 2.5 (0.49)
- Time to peak total symptom score, mean (SE) (RSV-A Memphis-37b [3]; 200 mg, ITT-A): 1.82 (0.67) days
- Time to resolution from peak total symptom score, mean (SE) (RSV-A Memphis-37b [3]; 200 mg, ITT-A): 2.73 (0.39) days
- AUC of total symptom score, mean (SE) (RSV-A Memphis-37b [3]; 200 mg, ITT-A, fixed time period of 6.5 days): 117.41 (35.26) score x hours
- AUC total symptom score, mean (SE) (RSV-A Memphis-37b [3]; 200 mg, ITT-I): 111.35 (33.88) score × hours
- Daily nasal mucus weight, LS mean (RSV-A Memphis-37b [3]; 200 mg, ITT-I): 0.33 g
- Time to peak total symptom score, mean (SE) (RSV-A Memphis-37b [3]; 200 mg, ITT-I): 2.08 (0.68) days
- AUC of total symptom score, mean (SE) (RSV-A Memphis-37b [3]; [5]): 111.35 (33.88) score x hours
- AUC of total symptom score, mean (SE) (RSV-A Memphis-37b [3]; 350 mg, ITT-A): 92.98 (26.81) score x hours
- AUC of total symptom score, reduction in mean vs placebo (RSV-A Memphis-37b [3]; 350 mg, ITT-A): 78.75%
- Daily nasal mucus weight, LS mean (RSV-A Memphis-37b [3]; 350 mg, ITT-A): 0.26 g
- Peak total symptom score, mean (SE) (RSV-A Memphis-37b [3]; 350 mg, ITT-A): 2.1 (0.49)
- Time to peak total symptom score, mean (SE) (RSV-A Memphis-37b [3]; 350 mg, ITT-A): 1.26 (0.55) days
- Time to resolution from peak total symptom score, mean (SE) (RSV-A Memphis-37b [3]; 350 mg, ITT-A): 2.44 (0.43) days
- AUC of total symptom score, mean (SE) (RSV-A Memphis-37b [3]; [6]): 92.98 (26.81) score x hours
- AUC total symptom score, mean (SE) (RSV-A Memphis-37b [3]; 350 mg, ITT-I): 82.41 (24.45) score × hours
- Daily nasal mucus weight, LS mean (RSV-A Memphis-37b [3]; 350 mg, ITT-I): 0.27 g
- Time to peak total symptom score, mean (SE) (RSV-A Memphis-37b [3]; 350 mg, ITT-I): 1.56 (0.57) days
- AUC of total symptom score, mean (SE) (RSV-A Memphis-37b [3]; [7]): 82.41 (24.45) score x hours
- Safety profile [4]: good safety profile
